Reference: patent publication US20030027210A1, “Alpha synuclein aggregation assays” (priority 2001, published 2003)
Where two headings read alike, the source gives them in different places.

What was measured:
[1] = target: alpha synuclein peptide 61-90 (SEQ.ID.No.:3) (Homo sapiens, UniProt P37840); experiment: Thioflavin T fluorescence disaggregation assay of aggregated alpha synuclein; format: biochemical
Experimental: Prior to assay, concentrated alpha synuclein peptide 61-90 (SEQ.ID.No.:3) was diluted into assay buffer containing Thioflavin T (20 uM) such that a signal to noise of approximately 5 to 1 was achieved. Rifampicin was maintained in 8% DMSO at a concentration of 2 mM. To break up super aggregates, the solution was sonicated using a Heat System sonicator with a microprobe. The samples were sonicated in 30 ml volume in a Coming 50 ml centrifuge tube for 25, 3 second bursts. The assay was run in LJL HE (LJL Biosystems) plates as follows: 18 μl of alpha synuclein/thioflavin T mixture was added to the well followed by 2 μl of a 30% DMSO or by rifampicin diluted in 30% DMSO. As a control, buffer with thioflavin T was added to separate wells in the absence of alpha synuclein. The samples were incubated at room temperature for the times indicated in FIG. 1 and were then read on the LJL reader using wavelengths of 440 nm and 485 nm.
To test the effect of incubation times on disaggregation of alpha synuclein, alpha synuclein was incubated with a rifampicin concentration curve ranging from 0.1 μM to 100 μM for 2 and 5 hours. The data are the mean of 11 samples±the standard deviation at each time point.
The signal to background are from quadruplicate samples of buffer (low value) and alpha synuclein/TFT buffer (high value). The EC50 were generated from 11 samples of each time point.
To narrow down the incubation times as well as to identify the concentrations of rifampicin to use, the above study was repeated using incubation times ranging from 5 minutes to 2 hours and rifampicin concentrations of 1.56 μM to 15 μM.

alpha synuclein protein = target: T1, alpha synuclein protein (Homo sapiens, UniProt P37840); experiment: Thioflavin T alpha-synuclein aggregation assay with or without seeding; format: biochemical; details: peptide used for seeding; Thioflavin T fluorescence
T1 construct: made in house; host or cells: E. coli ER2566
Experimental: A fluorescence-based TFT high-throughput screening assay was developed for the a-synuclein aggregation. Thioflavin T absorbs at 450 nm and emits at 485 nm; fluorescence increases 40-fold in the presence of beta-sheet conformation (LeVine and Scholten). Thioflavin T was obtained from Fluka Chemika. Twenty four micrograms (24 μg) of alpha synuclein protein in assay buffer (0.2 M potassium chloride pH=6; 0.075% sodium azide) was added to microvolume multiwell plate holding 10 μL. Then, Thioflavin T (TFT) was added to each well to a final concentration of 20 μM and contents were thoroughly mixed. Alpha-synuclein was allowed to fully aggregated prior to conducting a dissaggregation assay. Degree of aggregation was measured by increase in Thioflavin T fluorescence. Alpha-synuclein aggregation was conducted with or without seeding (using a peptide to enhance the rate of aggregation).
Alpha synuclein aggregates through the formation of a beta sheet structure, measured by increased fluorescence of Thioflavin T at 485 nm.

EC50 ([1]; incubation time 15 minutes, rifampicin 1.56 μM to 15 μM, read-out: EC50 for Rifampicin to disaggregate alpha synuclein) [µM]	EC50 ([1]; incubation time 30 minutes, rifampicin 1.56 μM to 15 μM, read-out: EC50 for Rifampicin to disaggregate alpha synuclein) [µM]	EC50 ([1]; incubation time 60 minutes, rifampicin 1.56 μM to 15 μM, read-out: EC50 for Rifampicin to disaggregate alpha synuclein) [µM]	EC50 ([1]; incubation time 2 hours, rifampicin 0.1 μM to 100 μM, room temperature, read-out: Rifampicin EC50) [µM]	EC50 ([1]; incubation time 120 minutes, rifampicin 1.56 μM to 15 μM, read-out: EC50 for Rifampicin to disaggregate alpha synuclein) [µM]	EC50 ([1]; incubation time 5 hours, rifampicin 0.1 μM to 100 μM, room temperature, read-out: Rifampicin EC50) [µM]	effect of seeding peptide on rate of synuclein aggregation (alpha synuclein protein)	Compound
311	76	16.8	23.9	10.6	21	–	CO[C@H]1/C=C/O[C@@]2(C)Oc3c(C)c(O)c4c(O)c(c(/C=N/N5CCN(C)CC5)c(O)c4c3C2=O)NC(=O)/C(C)=C\C=C\[C@H](C)[C@H](O)[C@@H](C)[C@@H](O)[C@@H](C)[C@H](OC(C)=O)[C@@H]1C [Rifampicin]
–	–	–	–	–	–	speed up synuclein aggregation	EQVTNVGGAVVTGVT [syn 61-75, synthetic peptide of residues 61 to 75 of human alpha synuclein, enhances rate of aggregation]
